Measured values reported in ChEMBL document CHEMBL5230092, “PFKFB3 inhibitors as potential anticancer agents: Mechanisms of action, current developments, and structure-activity relationships” (Eur J Med Chem, 2020).
Blank lines part the entries; values can stand above or below the compound they belong to.

Assays:
[1] = biological target: T1, 6-phosphofructo-2-kinase/fructose-2,6-bisphosphatase 3 (Homo sapiens, UniProt Q16875); experiment: Inhibition of PFKFB3 (unknown origin) incubated for 90 mins by ADP-Glo luminescent assay
T1 sequence (Q16875 whole entry): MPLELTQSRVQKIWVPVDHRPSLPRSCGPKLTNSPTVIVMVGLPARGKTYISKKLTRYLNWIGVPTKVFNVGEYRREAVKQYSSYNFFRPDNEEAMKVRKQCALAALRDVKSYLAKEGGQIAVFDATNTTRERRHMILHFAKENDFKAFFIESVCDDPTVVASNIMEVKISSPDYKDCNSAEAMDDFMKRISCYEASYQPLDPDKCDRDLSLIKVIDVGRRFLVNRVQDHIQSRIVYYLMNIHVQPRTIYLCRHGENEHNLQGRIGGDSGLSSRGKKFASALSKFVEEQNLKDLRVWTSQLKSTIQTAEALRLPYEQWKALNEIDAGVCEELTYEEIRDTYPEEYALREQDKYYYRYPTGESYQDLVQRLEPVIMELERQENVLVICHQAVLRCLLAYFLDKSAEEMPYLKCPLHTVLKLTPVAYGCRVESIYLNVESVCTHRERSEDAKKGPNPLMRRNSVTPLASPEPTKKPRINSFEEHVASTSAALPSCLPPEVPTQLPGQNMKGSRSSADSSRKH

[2] = biological target: T1, 6-phosphofructo-2-kinase/fructose-2,6-bisphosphatase 3; experiment: Inhibition of PFKFB3 (unknown origin) by UV-vis spectrophotometry
[3] = biological target: T1, 6-phosphofructo-2-kinase/fructose-2,6-bisphosphatase 3; experiment: Binding affinity to PFKFB3 (unknown origin) by MST assay
[4] = biological target: T1, 6-phosphofructo-2-kinase/fructose-2,6-bisphosphatase 3; experiment: Inhibition of PFKFB3 (unknown origin) at 250 nM relative to control
[5] = Half life in BALBc mouse at 10 mg/kg, iv by LC-MS/MS analysis; assay type: ADME, organism-based; conditions: BALB/c, in vivo
[6] = AUC in BALBc mouse at 10 mg/kg, iv by LC-MS/MS analysis; assay type: ADME, organism-based; parameters: dose 10 mg/kg, route iv; conditions: BALB/c, in vivo
[7] = Oral bioavailability in BALBc mouse by LC-MS/MS analysis; assay type: ADME, organism-based; conditions: BALB/c, in vivo
[8] = biological target: T1, 6-phosphofructo-2-kinase/fructose-2,6-bisphosphatase 3; experiment: Inhibition of PFKFB3 (unknown origin) by ADP-Glo luminescent assay
[9] = biological target: T1, 6-phosphofructo-2-kinase/fructose-2,6-bisphosphatase 3; assay type: cell-based, NUGC-3
[10] = biological target: T1, 6-phosphofructo-2-kinase/fructose-2,6-bisphosphatase 3; assay type: cell-based, MIA PaCa-2
[11] = biological target: T1, 6-phosphofructo-2-kinase/fructose-2,6-bisphosphatase 3; assay type: cell-based, PANC-1
[12] = Metabolic stability in human liver microsomes assessed as clearance; assay type: ADME, Microsome; conditions: read-out: CLH
[13] = Metabolic stability in mouse liver microsomes assessed as clearance; assay type: ADME, Microsome; conditions: read-out: CLH
[14] = Toxicity in Sprague-Dawley rat assessed as maximum tolerated dose; conditions: in vivo
[15] = Metabolic stability in human liver microsomes; assay type: ADME, Microsome
[16] = AUC in BALB/c mouse at 5 mg/kg, iv by LC-MS/MS analysis; assay type: ADME, organism-based; parameters: dose 5 mg/kg, route iv; conditions: in vivo
[17] = Clearance in BALB/c mouse at 5 mg/kg, iv by LC-MS/MS analysis; assay type: ADME, organism-based; conditions: in vivo
[18] = Half life in BALB/c mouse at 5 mg/kg, iv by LC-MS/MS analysis; assay type: ADME, organism-based; conditions: in vivo
[19] = Half life in Beagle dog at 6 mg/kg, iv by LC-MS/MS analysis; assay type: ADME, organism-based, Canis lupus familiaris; conditions: in vivo
[20] = AUC in Beagle dog at 6 mg/kg, iv by LC-MS/MS analysis; assay type: ADME, organism-based, Canis lupus familiaris; parameters: dose 6 mg/kg, route iv; conditions: in vivo
[21] = Oral bioavailability in Beagle dog by LC-MS/MS analysis; assay type: ADME, organism-based, Canis lupus familiaris; conditions: in vivo
[22] = biological target: T1, 6-phosphofructo-2-kinase/fructose-2,6-bisphosphatase 3; experiment: Inhibition of full-length human PFKFB3 (1 to 520 residues) incubated for 2 hrs in presence of ATP by ADP-Glo assay
[23] = Half life in iv dosed C57BL/6 mouse by LC-MS/MS analysis; assay type: ADME, organism-based; conditions: in vivo
[24] = biological target: T1, 6-phosphofructo-2-kinase/fructose-2,6-bisphosphatase 3; experiment: Inhibition of PFKFB3 (unknown origin)
HeLa [25] = experiment: Antiproliferative activity against human HeLa cells assessed as cell growth inhibition measured after 72 hrs by MTT assay; assay type: functional
A549 = experiment: Antiproliferative activity against human A549 cells assessed as cell growth inhibition measured after 72 hrs by MTT assay; assay type: functional
HT-29 = experiment: Antiproliferative activity against human HT-29 cells assessed as cell growth inhibition measured after 72 hrs by MTT assay; assay type: functional
MDA-MB-231 = experiment: Antiproliferative activity against human MDA-MB-231 cells assessed as cell growth inhibition measured after 72 hrs by MTT assay; assay type: functional
[26] = biological target: T1, 6-phosphofructo-2-kinase/fructose-2,6-bisphosphatase 3; experiment: Inhibition of PFKFB3 (unknown origin) at 100 uM relative to control
[27] = Half life in Sprague-Dawley rat at 10 mg/kg, iv by LC-MS/MS analysis; assay type: ADME, organism-based; conditions: in vivo
[28] = Cmax in Sprague-Dawley rat at 10 mg/kg, iv by LC-MS/MS analysis; assay type: ADME, organism-based; parameters: dose 10 mg/kg, route iv; conditions: in vivo
[29] = Volume of distribution in Sprague-Dawley rat at 10 mg/kg, iv by LC-MS/MS analysis; assay type: ADME, organism-based; conditions: in vivo
[30] = AUC in Sprague-Dawley rat at 10 mg/kg, iv by LC-MS/MS analysis; assay type: ADME, organism-based; parameters: dose 10 mg/kg, route iv; conditions: in vivo
[31] = Oral bioavailability in Sprague-Dawley rat by LC-MS/MS analysis; assay type: ADME, organism-based; conditions: in vivo
[32] = Cytotoxicity against human Epithelial cell assessed as cell growth inhibition; assay type: toxicity, cell-based; conditions: epithelial cells
HeLa [33] = experiment: Antiproliferative activity against human HeLa cells assessed as cell growth inhibition; assay type: functional
[34] = biological target: 6-phosphofructo-2-kinase/fructose-2,6-bisphosphatase 1 (Homo sapiens) (UniProt P16118); experiment: Inhibition of PFKFB1 (unknown origin) at 5.94 uM relative to control
Sequence of 6-phosphofructo-2-kinase/fructose-2,6-bisphosphatase 1 (Homo sapiens) (P16118 2-471 limits assumed): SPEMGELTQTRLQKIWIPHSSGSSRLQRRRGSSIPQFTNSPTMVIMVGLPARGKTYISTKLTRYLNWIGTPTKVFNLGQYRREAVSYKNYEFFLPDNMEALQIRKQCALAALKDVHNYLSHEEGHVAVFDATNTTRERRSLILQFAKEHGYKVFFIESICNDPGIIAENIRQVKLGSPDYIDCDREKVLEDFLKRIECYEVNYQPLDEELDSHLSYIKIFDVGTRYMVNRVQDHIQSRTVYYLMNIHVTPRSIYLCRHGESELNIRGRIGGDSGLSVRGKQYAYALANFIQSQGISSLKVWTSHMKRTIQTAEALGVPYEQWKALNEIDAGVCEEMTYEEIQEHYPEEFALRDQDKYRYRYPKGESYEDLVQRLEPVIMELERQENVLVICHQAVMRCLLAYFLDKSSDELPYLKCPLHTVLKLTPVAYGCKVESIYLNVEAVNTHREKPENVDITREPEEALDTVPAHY

[35] = biological target: 6-phosphofructo-2-kinase/fructose-2,6-bisphosphatase 2 (Homo sapiens) (UniProt O60825); experiment: Inhibition of PFKFB2 (unknown origin) at 5.94 uM relative to control
Sequence of 6-phosphofructo-2-kinase/fructose-2,6-bisphosphatase 2 (Homo sapiens) (O60825 2-505 limits assumed): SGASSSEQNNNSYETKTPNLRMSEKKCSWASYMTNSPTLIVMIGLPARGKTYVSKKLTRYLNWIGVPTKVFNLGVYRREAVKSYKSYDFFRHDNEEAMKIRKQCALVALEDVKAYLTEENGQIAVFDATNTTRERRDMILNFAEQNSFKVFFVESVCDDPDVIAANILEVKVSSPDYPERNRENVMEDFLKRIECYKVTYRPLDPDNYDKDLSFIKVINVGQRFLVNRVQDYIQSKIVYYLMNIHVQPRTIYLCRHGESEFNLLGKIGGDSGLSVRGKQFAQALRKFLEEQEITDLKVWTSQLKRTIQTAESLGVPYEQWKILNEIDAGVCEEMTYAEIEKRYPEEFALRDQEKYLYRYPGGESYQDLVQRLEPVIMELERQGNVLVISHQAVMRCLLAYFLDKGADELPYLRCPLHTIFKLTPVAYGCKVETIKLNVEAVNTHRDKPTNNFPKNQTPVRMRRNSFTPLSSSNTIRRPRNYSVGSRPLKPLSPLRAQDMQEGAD

[36] = biological target: 6-phosphofructo-2-kinase/fructose-2,6-bisphosphatase 4 (Homo sapiens) (UniProt Q16877); experiment: Inhibition of PFKFB4 (unknown origin) at 5.94 uM relative to control
Sequence of 6-phosphofructo-2-kinase/fructose-2,6-bisphosphatase 4 (Homo sapiens) (Q16877 whole entry, looked up): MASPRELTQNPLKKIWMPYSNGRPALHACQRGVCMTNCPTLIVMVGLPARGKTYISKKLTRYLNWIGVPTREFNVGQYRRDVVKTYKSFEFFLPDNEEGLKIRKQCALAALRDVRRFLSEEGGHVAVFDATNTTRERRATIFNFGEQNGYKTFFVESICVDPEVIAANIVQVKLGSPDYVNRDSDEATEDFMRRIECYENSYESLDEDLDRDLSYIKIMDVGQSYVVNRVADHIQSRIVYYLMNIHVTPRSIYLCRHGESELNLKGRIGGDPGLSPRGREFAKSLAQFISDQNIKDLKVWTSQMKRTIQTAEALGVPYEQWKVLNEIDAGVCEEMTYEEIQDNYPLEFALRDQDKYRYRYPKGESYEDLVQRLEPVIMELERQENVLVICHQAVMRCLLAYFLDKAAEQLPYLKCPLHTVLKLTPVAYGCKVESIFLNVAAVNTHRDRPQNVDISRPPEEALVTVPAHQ

Compound: COc1cccc([C@H](C)Nc2cc(-c3ccc4ncsc4c3)nc(C)n2)c1
- IC50 [2]: < 500 nM

Compound: CC(C)C[C@H](NC(=O)[C@H](CC(C)C)NC(=O)[C@H](Cc1ccccc1)NC(=O)[C@@H](N)CO)C(=O)N[C@@H](CCCN=C(N)N)C(N)=O
- K [3]: 18 µM

Compound: O=C(c1ccccc1)c1cc2c(ccc3ccccc32)[nH]1
- inhibition [4]: 13.5%
- half-life [5]: 126 min
- AUC [6]: 2630 ng·h/mL
- bioavailability [7]: 25%

Compound: N[C@H](Cc1c[nH]c2ccccc12)C(=O)NCC(=O)N[C@H](Cc1ccc(O)cc1)C(=O)O
- K [3]: 3 µM

Compound: O=C(O)c1ccc(NS(=O)(=O)c2cc(Cl)sc2Cl)cc1O
- IC50 [8]: 290 nM

Compound: O=C(/C=C/c1ccc2ccc(C(F)(F)F)cc2n1)c1ccncc1 [PFK-158]
- MTD [14]: > 40 mg/kg
- Stability [15]: 37%
- AUC [16]: 3240 ng·h/mL
- clearance [17]: 26 mL/min/kg
- half-life [18]: 630 min

Compound: Nc1ccc(C(=O)c2cc3c(ccc4ccccc43)[nH]2)cc1
- inhibition [4]: 81.5%
- half-life [19]: 348 min
- AUC [20]: 5070 ng·h/mL
- bioavailability [21]: 95%

Compound: CC(C)C[C@H](NC(=O)[C@H](Cc1ccccc1)NC(=O)CNC(=O)[C@H](CO)NC(=O)[C@@H](N)Cc1ccc(O)cc1)C(=O)N[C@H](C(=O)O)[C@@H](C)O
- K [3]: 44 µM

Compound: O=C1NC=NC2C1C=C(c1ccc(Br)cc1)N2c1ccccc1 (stereo not given)
- IC50 [22]: 398 nM

Compound: O=C(/C=C/c1ccc2ccccc2n1)c1ccncc1
- half-life [23]: 306 min

Compound: O=C1NC=NC2C1C(c1ccc(Cl)cc1)=CN2c1ccccc1 (stereo not given)
- IC50 [22]: 631 nM

Compound: O=C(CBr)NCCOP(=O)(O)O
- IC50 [24]: 2 mM

Compound: O=C(O)c1ccc(NS(=O)(=O)c2cc(-c3ccc4c(c3)OCO4)c(Cl)s2)cc1O
- IC50 [8]: 200 nM

Compound: O=C(/C=C/c1cccnc1)c1ccncc1
- IC50 [32]: 1400 nM

Compound: Cc1c(S(=O)(=O)Nc2cccc(C(=O)O)c2)sc2ccc(C(C)C)cc12
- IC50 [11]: 2300 nM

Compound: CCOC(=O)c1cc2ccc(O)cc2oc1=O
- GI50 (HeLa [33]): 2700 nM

Compound: O=c1cc(-c2ccc(O)cc2)oc2c(O)c(O)c(O)c(O)c12
- inhibition [34]: < 50%
- inhibition [35]: < 50%
- inhibition [36]: < 50%

The remaining lines, values ahead:

- IC50 [1]: 3.5 nM
Compound: COc1ccc(C(Nc2cc(-c3ccc4ccn(C)c4c3)c3nccnc3c2)c2cnnn2C)cn1 (stereo not given)

- IC50 [9]: 90 nM
- IC50 [10]: 90 nM
- IC50 [11]: 90 nM
Compound: O=C(OCCO)c1ccc(NS(=O)(=O)c2cccc(-c3cc(F)ccc3O)c2)cc1O

- microsomal CLint [12]: 50 µL/min/mg
- microsomal CLint [13]: 29 µL/min/mg
Compound: Cn1cc([C@H](Nc2cc(-c3ccc4ccn(C)c4c3)c3nccnc3c2)c2cnnn2C)cn1

- IC50 [8]: 280 nM
Compound: O=C(O)c1ccc(NS(=O)(=O)c2cccc(-c3ccc4ncccc4c3)c2)cc1O

- IC50 [8]: 150 nM
Compound: CC(C)OC(=O)c1cccc(-c2cc(S(=O)(=O)Nc3ccc(C(=O)O)c(O)c3)sc2Cl)c1

- GI50 (HeLa [25]): 15.1 µM
- GI50 (A549): 18 µM
- GI50 (HT-29): 18 µM
- GI50 (MDA-MB-231): 18 µM
- inhibition [26]: 17%
Compound: Cc1ccc(/C=N/NC(=O)c2nnn(-c3nonc3N)c2-c2ccc([N+](=O)[O-])cc2)cc1

- inhibition [4]: 26.2%
- half-life [27]: 330 min
- Cmax [28]: 16900 ng/mL
- Vd [29]: 2.5 L/kg
- AUC [30]: 1290 ng·h/mL
- bioavailability [31]: 38%
Compound: Cl.O=C(c1ccncc1)c1cc2c(ccc3ccccc32)[nH]1

- IC50 [22]: 398 nM
Compound: O=C1NC=NC2C1C(c1ccccc1)=CN2c1ccc(Br)cc1 (stereo not given)

- IC50 [22]: 251 nM
Compound: COc1ccc(C2=CN(c3cccc(OC)c3)C3N=CNC(=O)C23)cc1 (stereo not given)
